Measurements taken from the NIST ThermoML archive (doi:10.1016/j.jct.2017.12.021).
Counter-ions that a name gives are not always drawn. ± gives the expanded uncertainty stated by the source.

Settings: 101.33 kPa, Liquid; for viscosity: Capillary tube (Ostwald / Ubbelohde) method; for mass density: Pycnometric method

viscosity (293.15 K)	mass density (293.15 K)	viscosity (298.15 K)	mass density (298.15 K)	viscosity (303.15 K)	mass density (303.15 K)	viscosity (308.15 K)	mass density (308.15 K)	viscosity (313.15 K)	mass density (313.15 K)	viscosity (318.15 K)	mass density (318.15 K)	viscosity (323.15 K)	mass density (323.15 K)	viscosity (328.15 K)	mass density (328.15 K)	viscosity (333.15 K)	mass density (333.15 K)	viscosity (338.15 K)	mass density (338.15 K)	Compound
44.12 ± 4.4 mPa·s	1138.4 ± 4.7 kg/m3	32.1 ± 3.2 mPa·s	1134.5 ± 4.7 kg/m3	20.79 ± 2.1 mPa·s	1131.1 ± 4.7 kg/m3	16.55 ± 1.7 mPa·s	1126.2 ± 4.7 kg/m3	13.18 ± 1.3 mPa·s	1122.4 ± 4.7 kg/m3	10.24 ± 1 mPa·s	1116.5 ± 4.6 kg/m3	8.62 ± 0.87 mPa·s	1112.1 ± 4.6 kg/m3	7.23 ± 0.73 mPa·s	1106.6 ± 4.6 kg/m3	6.41 ± 0.65 mPa·s	1102.8 ± 4.6 kg/m3	5.71 ± 0.57 mPa·s	1097.3 ± 4.6 kg/m3	CCOC(=O)CC(O)(CC(=O)OCC)C(=O)OCC [triethyl citrate]
21.48 ± 2.2 mPa·s	1158.3 ± 4.7 kg/m3	16.36 ± 1.6 mPa·s	1152.9 ± 4.7 kg/m3	12.5 ± 1.3 mPa·s	1147.4 ± 4.7 kg/m3	9.95 ± 1 mPa·s	1142 ± 4.6 kg/m3	8.21 ± 0.82 mPa·s	1136.6 ± 4.6 kg/m3	6.75 ± 0.68 mPa·s	1131.1 ± 4.6 kg/m3	5.66 ± 0.57 mPa·s	1125.7 ± 4.6 kg/m3	4.82 ± 0.48 mPa·s	1120.2 ± 4.6 kg/m3	4.18 ± 0.42 mPa·s	1114.8 ± 4.5 kg/m3	3.67 ± 0.37 mPa·s	1109.4 ± 4.5 kg/m3	CC(=O)OCC(COC(C)=O)OC(C)=O [glyceryl triethanoate]
	1142.1 ± 5.2 kg/m3	46.55 ± 4.7 mPa·s	1137.5 ± 5.2 kg/m3	34.56 ± 3.5 mPa·s	1133.1 ± 5.2 kg/m3	25.1 ± 2.6 mPa·s	1127.6 ± 5.1 kg/m3	17.52 ± 1.8 mPa·s	1124.1 ± 5.1 kg/m3	13.81 ± 1.4 mPa·s	1118.5 ± 5.1 kg/m3	10.95 ± 1.1 mPa·s	1115.1 ± 5.1 kg/m3	8.86 ± 0.9 mPa·s	1110.1 ± 5.1 kg/m3	7.98 ± 0.81 mPa·s	1105.4 ± 5 kg/m3	7.02 ± 0.71 mPa·s	1100.5 ± 5 kg/m3	CCOC(=O)CC(CC(=O)OCC)(OC(C)=O)C(=O)OCC [triethyl acetyl citrate]
3.87 ± 0.39 mPa·s	981.5 ± 4 kg/m3	3.26 ± 0.33 mPa·s	977 ± 4 kg/m3	2.81 ± 0.28 mPa·s	973.1 ± 4 kg/m3	2.42 ± 0.24 mPa·s	968.4 ± 4 kg/m3	2.15 ± 0.22 mPa·s	963.5 ± 4 kg/m3	1.9 ± 0.19 mPa·s	958.5 ± 3.9 kg/m3	1.69 ± 0.17 mPa·s	953.9 ± 3.9 kg/m3	1.55 ± 0.16 mPa·s	948.9 ± 3.9 kg/m3	1.43 ± 0.14 mPa·s	944.1 ± 3.9 kg/m3	1.3 ± 0.13 mPa·s	940.1 ± 3.9 kg/m3	CCCCOC(=O)C(C)O (centres undefined) [butyl 2-hydroxypropanoate]
